The target in one assay is T1, ER-α in MCF-7 cells (Homo sapiens, UniProt P03372).
T1 sequence (P03372 1-595): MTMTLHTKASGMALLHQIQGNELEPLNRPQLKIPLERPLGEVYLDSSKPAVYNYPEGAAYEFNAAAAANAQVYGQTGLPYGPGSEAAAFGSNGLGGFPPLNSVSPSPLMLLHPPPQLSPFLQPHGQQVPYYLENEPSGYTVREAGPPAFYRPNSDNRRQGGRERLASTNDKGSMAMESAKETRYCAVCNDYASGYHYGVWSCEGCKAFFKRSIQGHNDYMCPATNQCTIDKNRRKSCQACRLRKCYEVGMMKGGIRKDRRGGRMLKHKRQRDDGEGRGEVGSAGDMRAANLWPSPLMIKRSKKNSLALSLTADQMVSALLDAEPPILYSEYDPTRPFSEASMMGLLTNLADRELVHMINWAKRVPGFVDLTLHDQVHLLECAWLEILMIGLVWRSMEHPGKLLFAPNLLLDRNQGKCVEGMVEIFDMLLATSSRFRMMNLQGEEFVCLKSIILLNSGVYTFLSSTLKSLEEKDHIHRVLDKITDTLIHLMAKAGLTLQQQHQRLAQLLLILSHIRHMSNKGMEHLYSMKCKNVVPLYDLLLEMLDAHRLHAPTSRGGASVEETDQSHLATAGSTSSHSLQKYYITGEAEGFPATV
The assay can be described thus: Breast cancer cell ER-α in cell western assay (SP1). Further details: endogenous in cells; host or cells: MCF-7. The note with it: 4 or 24 hr post compound addition; for Emax: MCF7, SP1 antibody, read-out: ER-α In Cell Western Assay (SP1) Max Response; for DC50: SP1 antibody, read-out: ER-α In Cell Western Assay (SP1) IC50. Format: cell-based. The essentials: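 MCF-7, charcoal-stripped FBS/RPMI, 3200 cells/well, adhered overnight. Formalin fix, SP1 Ab o/n 4 °C, IRDye 800CW + DRAQ5; % ER = 800/700 ratio vs untreated.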

The next assay has as its system MCF-7 cells. The assay is described as follows: Breast cancer cell viability assay (CellTiter-Glo, 5 days). The assay is classed as cell-based. Particulars: 5 days' compound exposure; for IC50: Homo sapiens, MCF7, 120 h. The method in brief:
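Eleven-point semilog compound series, final 0.3-0.000003 μM, added to overnight-adhered MCF-7 cells (320/well; RPMI, 10% FBS, 20 mM HEPES) for 5 days. Viability read by CellTiter-Glo luminescence, background from medium without cells subtracted, expressed relative to untreated cells.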
For orientation: Cellular ATP, detected with luciferase, serves as a proxy for viable cell number.

A word on the IC50: it is the concentration at which inhibition is half-maximal. The low end stands for greater potency in that assay, the high end for weaker potency in that assay. As for `CC/C(=C(/c1ccc(/C=C/C(=O)O)cc1)c1ccc2[nH]ncc2c1F)c1ccncc1Cl` [Compound 224, (E)-3-(4-((E)-2-(3-Chloropyridin-4-yl)-1-(4-fluoro-1H-indazol-5-yl)but-1-en-1-yl)phenyl)acrylic acid], at ER-α in MCF-7 cells, the Emax was at least 40% and the DC50 was at most 100 nM. For the same compound, in the assay on MCF-7 cells, the “MCF7 Viability Assay Max Response” value is listed as “++ (++ = a single % value ≧ 40%)” and the IC50 is at most 100 nM.

Turning to `CC/C(=C(/c1ccc(/C=C/C(=O)O)cc1)c1ccc2c(c1)SCC(=O)N2)c1ccccc1` [Compound 103, (E)-3-(4-((E)-1-(3-Oxo-3,4-dihydro-2H-benzo[b][1,4]thiazin-7-yl)-2-phenylbut-1-en-1-yl)phenyl)acrylic acid], at ER-α in MCF-7 cells, the Emax is at least 40% and the DC50 was above 100 nM. Besides, in the assay with MCF-7 cells, the “MCF7 Viability Assay Max Response” value is listed as “++ (++ = a single % value ≧ 40%)” and the IC50 was above 100 nM.

For `CC/C(=C(/c1ccc(/C=C/C(=O)O)cc1)c1ccc2[nH]nnc2c1)c1ccc(F)cc1Cl` [Compound 72, (E)-3-(4-((E)-1-(1H-Benzo[d][1,2,3]triazol-5-yl)-2-(2-chloro-4-fluorophenyl)but-1-en-1-yl)phenyl)acrylic acid], on ER-α in MCF-7 cells, the Emax is at least 40% and the DC50 is at most 100 nM. In the assay with MCF-7 cells, the “MCF7 Viability Assay Max Response” value is given as “++ (++ = a single % value ≧ 40%)” and the IC50 was at most 100 nM.

As to `CC/C(=C(/c1ccc(/C=C/C(=O)O)cc1)c1cc(F)c2[nH]ncc2c1)c1ccncc1Cl` [Compound 245, (E)-3-(4-((E)-2-(3-chloropyridin-4-yl)-1-(7-fluoro-1H-indazol-5-yl)but-1-en-1-yl)phenyl)acrylic acid], on ER-α in MCF-7 cells, the Emax is at least 40% and the DC50 was at most 100 nM. Also, in the assay with MCF-7 cells, the “MCF7 Viability Assay Max Response” value is listed as “++ (++ = a single % value ≧ 40%)” and the IC50 was at most 100 nM.

For the compound `CCOC(=O)/C=C/c1ccc(/C(=C(/CC)c2ccccc2)c2cccc3[nH]ncc23)cc1` [Compound 175, (E)-Ethyl 3-(4-((E)-1-(1H-Indazol-4-yl)-2-phenylbut-1-en-1-yl)phenyl)acrylate], at ER-α in MCF-7 cells, the Emax is at least 40% and the DC50 was at most 100 nM. Further, in the assay with MCF-7 cells, the “MCF7 Viability Assay Max Response” value is reported as “+ (+ = a single % value < 40%)” and the IC50 was at most 100 nM.

Take `CC/C(=C(/c1ccc(OCCN2CCCC2)cc1)c1ccc2[nH]ncc2c1)c1ccccc1` [Compound 191, (E)-5-(2-Phenyl-1-(4-(2-(pyrrolidin-1-yl)ethoxy)phenyl)but-1-en-1-yl)-1H-indazole]: on ER-α in MCF-7 cells, the Emax was at least 40% and the DC50 is at most 100 nM. Besides, in the assay on MCF-7 cells, the “MCF7 Viability Assay Max Response” value is recorded as “++ (++ = a single % value ≧ 40%)” and the IC50 was at most 100 nM.

Take `CC/C(=C(/c1ccc(/C=C/C(=O)O)cc1)c1ccc2[nH]ncc2c1)c1ccncc1C` [Compound 226, (E)-3-(4-((E)-1-(1H-Indazol-5-yl)-2-(3-methylpyridin-4-yl)but-1-en-1-yl)phenyl)acrylic acid]: the Emax on ER-α in MCF-7 cells is at least 40%. In the assay on MCF-7 cells, the “MCF7 Viability Assay Max Response” value is “++ (++ = a single % value ≧ 40%)” and the IC50 is at most 100 nM.

As for `CC/C(=C(/c1ccc(/C=C/C(=O)O)cc1)c1ccc2[nH]ncc2c1F)c1cccc(Oc2ccc(S(C)(=O)=O)nc2)c1` [Compound 378, (E)-3-(4-((E)-1-(4-Fluoro-1H-indazol-5-yl)-2-(3-((6-(methylsulfonyl)pyridin-3-yl)oxy)phenyl)but-1-en-1-yl)phenyl)acrylic acid], on ER-α in MCF-7 cells, the Emax is at least 40% and the DC50 was at most 100 nM. In addition, in the assay on MCF-7 cells, the “MCF7 Viability Assay Max Response” value is recorded as “++ (++ = a single % value ≧ 40%)” and the IC50 was at most 100 nM.

Consider `CC/C(=C(/c1ccc(/C=C/C(=O)O)cc1)c1ccc2[nH]c(=O)[nH]c2c1)c1ccccc1` [Compound 122, (E)-3-(4-((E)-1-(2-Oxo-2,3-dihydro-1H-benzo[d]imidazol-5-yl)-2-phenylbut-1-en-1-yl)phenyl)acrylic acid], for which, at ER-α in MCF-7 cells, the Emax was at least 40% and the DC50 is above 100 nM. Besides, in the assay with MCF-7 cells, the “MCF7 Viability Assay Max Response” value was “++ (++ = a single % value ≧ 40%)” and the IC50 was above 100 nM.

For the compound `CC/C(=C(/c1ccc(/C=C/C(=O)O)cc1)c1ccc2scnc2c1)c1ccccc1C` [Compound 283, (E)-3-(4-((E)-1-(Benzo[d]thiazol-5-yl)-2-(o-tolyl)but-1-en-1-yl)phenyl)acrylic acid], at ER-α in MCF-7 cells, the Emax is at least 40% and the DC50 was at most 100 nM. Besides, in the assay with MCF-7 cells, the “MCF7 Viability Assay Max Response” value is given as “++ (++ = a single % value ≧ 40%)” and the IC50 was at most 100 nM.

Consider `CC/C(=C(/c1ccc(/C=C/C(=O)O)cc1)c1ccc2c(cnn2-c2ccccc2)c1)c1ccccc1` [Compound 143, (E)-3-(4-((E)-2-Phenyl-1-(1-phenyl-1H-indazol-5-yl)but-1-en-1-yl)phenyl)acrylic acid], for which, on ER-α in MCF-7 cells, the Emax is at least 40% and the DC50 was above 100 nM. For the same compound, in the assay with MCF-7 cells, the “MCF7 Viability Assay Max Response” value is recorded as “++ (++ = a single % value ≧ 40%)” and the IC50 is above 100 nM.

`CC/C(=C(/c1ccc(/C=C/C(=O)O)cc1)c1cc(F)c2[nH]ccc2c1)c1ccccc1` [Compound 92, (E)-3-(4-((E)-1-(7-Fluoro-1H-indol-5-yl)-2-phenylbut-1-en-1-yl)phenyl)acrylic acid]: on ER-α in MCF-7 cells, the Emax was at least 40% and the DC50 is at most 100 nM. For the same compound, in the assay with MCF-7 cells, the “MCF7 Viability Assay Max Response” value is listed as “++ (++ = a single % value ≧ 40%)” and the IC50 is at most 100 nM.

With `CC/C(=C(/c1ccc(/C=C/C(=O)NS(=O)(=O)c2ccccn2)cc1)c1ccc2[nH]ncc2c1)c1ccc(F)cc1Cl` [Compound 432, (E)-3-(4-((E)-2-(2-Chloro-4-fluorophenyl)-1-(1H-indazol-5-yl)but-1-en-1-yl)phenyl)-N-(pyridin-2-ylsulfonyl)acrylamide], on ER-α in MCF-7 cells, the Emax was at least 40% and the DC50 is at most 100 nM. In the assay with MCF-7 cells, the “MCF7 Viability Assay Max Response” value is listed as “++ (++ = a single % value ≧ 40%)” and the IC50 was at most 100 nM.

Regarding `CC/C(=C(/c1ccc(/C=C/C(=O)O)cc1)c1ccc2[nH]ncc2c1)c1ccc(Nc2ccccc2)cc1` [Compound 397, (E)-3-(4-((E)-1-(1H-Indazol-5-yl)-2-(4-(phenylamino)phenyl)but-1-en-1-yl)phenyl)acrylic acid], on ER-α in MCF-7 cells, the Emax is at least 40% and the DC50 is at most 100 nM. Further, in the assay on MCF-7 cells, the “MCF7 Viability Assay Max Response” value is recorded as “++ (++ = a single % value ≧ 40%)” and the IC50 is at most 100 nM.

Regarding `CC/C(=C(/c1ccc2cc(/C=C/C(=O)O)ccc2c1)c1ccc2[nH]ncc2c1)c1ccccc1` [Compound 180, (E)-3-(6-((E)-1-(1H-Indazol-5-yl)-2-phenylbut-1-en-1-yl)naphthalen-2-yl)acrylic acid], at ER-α in MCF-7 cells, the Emax is at least 40% and the DC50 was at most 100 nM. Moreover, in the assay with MCF-7 cells, the “MCF7 Viability Assay Max Response” value is “++ (++ = a single % value ≧ 40%)” and the IC50 was at most 100 nM.

Turning to `O=C(O)/C=C/c1ccc(/C(=C(\c2ccccc2Cl)C2CC2)c2cccc3[nH]ncc23)cc1` [Compound 71, (E)-3-(4-((E)-2-(2-Chlorophenyl)-2-cyclopropyl-1-(1H-indazol-4-yl)vinyl)phenyl)acrylic acid], at ER-α in MCF-7 cells, the Emax was at least 40% and the DC50 is at most 100 nM. In the assay on MCF-7 cells, the “MCF7 Viability Assay Max Response” value was “++ (++ = a single % value ≧ 40%)” and the 50% inhibitory concentration (IC50) was at most 100 nM.

On to `CC/C(=C(/c1ccc(/C=C/C(=O)O)cc1)c1ccc2[nH]ncc2c1)c1cccc(Oc2ccccc2S(C)(=O)=O)c1` [Compound 374, (E)-3-(4-((E)-1-(1H-Indazol-5-yl)-2-(3-(2-(methylsulfonyl)phenoxy)phenyl)but-1-en-1-yl)phenyl)acrylic acid], for which, at ER-α in MCF-7 cells, the Emax is at least 40% and the DC50 is above 100 nM. For the same compound, in the assay on MCF-7 cells, the “MCF7 Viability Assay Max Response” value was “++ (++ = a single % value ≧ 40%)” and the IC50 was above 100 nM.

For the compound `CC/C(=C(/c1ccc(/C=C/C(=O)O)cc1)c1ccc2[nH]ncc2c1)c1cccc(N2CCOCC2)c1` [Compound 265, (E)-3-(4-((E)-1-(1H-Indazol-5-yl)-2-(3-morpholinophenyl)but-1-en-1-yl)phenyl)acrylic acid], at ER-α in MCF-7 cells, the Emax was at least 40% and the DC50 was above 100 nM. Also, in the assay on MCF-7 cells, the “MCF7 Viability Assay Max Response” value is recorded as “++ (++ = a single % value ≧ 40%)” and the IC50 is above 100 nM.

For `CC/C(=C(/c1ccc(/C=C/C(=O)O)cc1)c1cccc2[nH]ncc12)c1ccccc1C` [Compound 21, (E)-3-(4-((E)-1-(1H-Indazol-4-yl)-2-(o-tolyl)but-1-en-1-yl)phenyl)acrylic acid], at ER-α in MCF-7 cells, the Emax is at least 40% and the DC50 was at most 100 nM. Also, in the assay on MCF-7 cells, the “MCF7 Viability Assay Max Response” value is “++ (++ = a single % value ≧ 40%)” and the IC50 was at most 100 nM.

Values taken from patent US9399646B2 (Genentech, Inc., priority 2010, dated 2016).
